Data: US8653027B2, “Method of treatment of type-1 diabetes with humanin analogues” (The Regents of the University of California, priority 2007, dated 2014)
Entries after “also recorded” stand apart in the source; their conditions may differ. Where two headings read alike, the source gives them in different places.

How the values were obtained:
NIT cells = experiment: Survival and STAT-3/ERK activation in NIT cells, potency compared to humanin; type: cell-based
IGFBP-3 = IGFBP-3 (Homo sapiens, UniProt P17936); experiment: IGFBP-3 binding
Sequence of IGFBP-3 (P17936 28-291, species assumed): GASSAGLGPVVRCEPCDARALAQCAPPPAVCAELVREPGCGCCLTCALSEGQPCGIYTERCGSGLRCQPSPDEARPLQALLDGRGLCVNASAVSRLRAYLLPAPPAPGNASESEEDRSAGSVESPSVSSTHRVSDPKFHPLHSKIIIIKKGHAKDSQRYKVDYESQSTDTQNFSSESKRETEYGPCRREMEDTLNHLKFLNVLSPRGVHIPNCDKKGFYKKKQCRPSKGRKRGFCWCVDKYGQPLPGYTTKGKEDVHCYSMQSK

NIT-1 cells = experiment: Caspase 3/7 fluorometric assay (ApoONE) of cytokine-induced apoptosis in NIT-1 cells; type: cell-based, Mouse
Description: Apoptosis is the main form of pancreatic beta cell death in animal models of type 1 diabetes mellitus. […] In this study, we used a caspase 3/7 specific fluorometric assay (ApoONE, Promega) to measure the degree of apoptosis induction by cytokines in NIT-1 cells.
Cells were cultured as described above. For the experiment, NIT-1 cells were seeded in 96-well plates at a density of 0.128×10^5 cells per well. After about 24 hours, medium was changed to FCS-free medium and the cells were exposed to TNF-α (5 ng/mL) or were kept untreated as controls. As expected, TNF-α induced apoptosis in NIT-1 cells at 48 hours.
TNF-α increased apoptosis approximately 40% compared to serum-deprived cells.

NOD mice [1] = type: in vivo; conditions: for glucose tolerance (response to glucose challenge): NOD mice, 0.7 mg/kg/d IP for 6 weeks, fasted overnight, vs saline
Description: As proof of principle, we examined whether a 6-week course of daily IP injected humanin (0.7 mg/kg/d) to euglycemic 9-week-old NOD mice (Taconic) could improve glucose tolerance as compared to saline-injected control mice (n=12/group). […] At the conclusion of the treatment, mice were fasted overnight and divided into groups that were subjected to IP insulin and glucose tolerance testing (n=6/group). […] We additionally harvested serum, pancreata, and various other organs from these mice for histological studies and analysis of serum humanin, IGFBP-3, and other IGF-related peptides.

NOD mice [2] = experiment: Insulitis scoring of pancreatic sections from NOD mice; type: in vivo, mouse; conditions: humanin-treated NOD mice vs vehicle-treated control
Text: To test whether administration of humanin regulates the extent of lymphocyte infiltration into pancreatic islets, fixed and embedded pancreatic tissues were examined. Pancreata from humanin-treated NOD mice were formalin fixed, stained with hematoxylin/eosin, and assessed in a blinded fashion to determine the degree of lymphocyte infiltration. Results were compared to tissues from saline-injected control mice. Three or four randomly selected and nonadjacent sections from each pancreas were scored independently by two blind observers and evaluated for mononuclear cell infiltration. Severity of infiltration was classified based on the degree of lymphocytic infiltration as follows: G0—normal (no infiltration); G1—peri-insulitis (mononuclear cells surrounding islets and ducts but no infiltration of the islet architecture); G2—moderate insulitis (mononuclear cells infiltrating less than 50% of the islet architecture); and G3—severe insulitis (more than 50% of the islet tissue infiltrated by lymphocytes, accompanied by a reduction in insulin staining). See Pastorale et al. (2002) Exp Biol Med (Maywood) 227:282-89.

STAT3 = STAT3 phosphorylation in NIT-1 cells by immunoblotting; type: cell-based, Mouse; conditions: 100 nM HN, serum free media
Description: (§1) To investigate the mechanism of Humanin-induced beta cell survival, we treated NIT-1 cells with 100 nM HN in serum free media. Cell lysates were harvested and phosphorylated ERK1/2 and STAT3 were assessed by immunoblotting.
(§2) Phosphorylation of ERK (activation) occurred 15 minutes after adding HN. Phosphorylation of STAT3 (activation) was a later event, 4 hours after addition of HN (FIG. 2).

ERK1/2 = ERK1/2 phosphorylation in NIT-1 cells by immunoblotting; type: cell-based, Mouse; conditions: 100 nM HN, serum free media
Description: as §1, §2

NIT-1 insulinoma cells = experiment: Serum starvation-induced apoptosis of NIT-1 cells, histone-associated DNA ELISA; type: cell-based, Mouse; conditions: NIT-1 cells serum starved 24 hours, humanin 1 to 10000 nM
Description: Secondary to the pro-survival effect of humanin observed in neuronal cells, we hypothesized that humanin could be a survival factor for neuroendocrine beta cells. Mouse NIT-1 insulinoma cells were serum starved for 24 hours as control, and compared to cultures co-incubated with increasing doses of humanin ranging from 1 to 10000 nM.
Conditions were as follows: NIT-1 cells were purchased from ATCC and maintained in F-12 Ham's medium (F12-K) supplemented with 10% FBS (fetal bovine serum), 10% L-glutamine, Penicillin (100 U/ml) and Streptomycin (100 μg/ml), in 25 cm^2 tissue culture flasks (Greiner, Frickenhausen, Germany). NIT-1 cells were maintained at 37 C in a 5% CO2/95% air mixture and were passaged twice weekly by trypsination (Invitrogen life technologies, Karlsruhe, Germany). For the experiment, NIT-1 cells were seeded in 96-well plates at a density of 0.128×10^5 cells per well. After about 24 hours, medium was changed to FCS-free medium.
Apoptosis was quantified by a specific histone-associated DNA ELISA.

NOD mice [3] = experiment: Onset of diabetes in NOD mice over 20-week treatment; type: in vivo, mouse; conditions: female NOD mice, 0.7 mg/kg/d IP daily from 5 weeks of age, vs saline, 0.7 mg/kg/day
Description: Four-week-old female NOD mice were treated with humanin. Before treatment, mice were tested two to three times per week for nonfasting blood glucose levels. Mice with blood glucose levels higher than 300 mg/dL on three consecutive measurements were considered diabetic. Beginning at 5 weeks of age, two groups of NOD mice (n=25 each) were administered (0.7 mg/kg/d) synthetic humanin by IP injection daily (Bachem). NOD mice injected with the same volume of saline served as negative controls.

IGFBP-3 deficient MEFs = experiment: Apoptosis ELISA in IGFBP-3 deficient mouse embryonic fibroblasts; type: cell-based; conditions: 100 nM peptide, 24 hours
Description: (§3) Mouse embryonic fibroblasts (MEFs) derived from normal (wild-type) and IGFBP3 deficient mice were used to test the effects of humanin and its analogues on survival. Apoptosis was measured after 24 hours with 100 nM of each peptide by ELISA. […] The increased potency seems to result from the lack of IGFBP-3 binding, because there is no additional advantage when IGFBP-3 is not present. Thus, F6A-HNG is distinct from previously described humanin derivatives.

normal (wild-type) MEFs = experiment: Apoptosis ELISA in normal (wild-type) mouse embryonic fibroblasts; type: cell-based; conditions: 100 nM peptide, 24 hours
Description: as §3

NONcNZO10/LtJ mice = experiment: IP glucose tolerance test in NONcNZO10/LtJ mice (obesity-induced type 2 diabetes model); type: in vivo, mouse; conditions: 25 μg IP twice a day for 14 days
Description: NONcNZO10/LtJ mice are a model for obesity-induced type 2 diabetes. NONcNZO10/LtJ mice were injected IP with 25 μg F6A-HNG twice a day for 14 days. Mice were subjected to 6 hour fast followed by an IP GTT on D15. Baseline glucose measurement was taken and the mice were injected IP with 0.5 mg/g glucose. Glucose was sampled at 0 and 90, 120 min.

Substance: F6AK21A-HNG: humanin analogue, SEQ ID NO:17 MAPRGASCLLLLTGEIDLPVARRA (synthetic humanin (HN) analogue F6AK21A-HNG)
- potency in promoting survival and activating STAT-3 and ERK, compared to humanin (NIT cells): even greater potency

Substance: Z-HN: humanin analogue, SEQ ID NO:18 MAKRGLNCLPHQVSEIDLSVQKRI (synthetic humanin (HN) analogue Z-HN)
- potency in promoting survival and activating STAT-3 and ERK, compared to humanin (NIT cells): two-fold greater potency than humanin

Substance: Humanin: 24 amino acid peptide, SEQ ID NO:1 MAPRGFSCLLLLTSEIDLPVKRRA
- IGFBP-3 binding (IGFBP-3): binds IGFBP-3
- protection from serum starvation induced apoptosis (caspase 3/7 assay) (NIT-1 cells; FCS-free medium, humanin 10 to 1000 nM): protects beta cells from cytokine-induced apoptosis and serum starvation induced apoptosis in a dose-dependent manner
- protection from TNF-α induced apoptosis (NIT-1 cells; TNF-α 5 ng/mL, 48 hours, humanin 10 to 1000 nM, caspase 3/7 assay): protected beta cells from TNF-α induced apoptosis in a dose dependent manner
- glucose tolerance (response to glucose challenge) (NOD mice [1]): improves glucose tolerance
- glucose tolerance (response to glucose challenge) (NOD mice [1]; listed as humanin): non-diabetic response to glucose challenge
- tolerability of daily IP injections (NOD mice [1]; mouse, in vivo, ip, 0.7 mg/kg/day): tolerated well
- total number of islets infiltrated by lymphocytes (NOD mice [2]): significantly decreased
- severity of lymphocyte infiltration (insulitis) (NOD mice [2]; grades G0-G3): significantly decreased; also recorded: decreased insulitis severity
- STAT3 activation (STAT3): activates ERK and STAT3
- time of phosphorylation of STAT3 (activation) after addition of HN (STAT3): 4 h
- ERK activation (ERK1/2): activates ERK
- time of phosphorylation of ERK (activation) after adding HN (ERK1/2): 15 min
- protection from serum-starvation induced apoptosis (NIT-1 insulinoma cells): potently protected beta cells from serum-starvation induced apoptosis in a dose dependent manner
- protection from serum-starvation induced apoptosis (NIT-1 insulinoma cells; listed as humanin): reduced the level of apoptosis
- onset of diabetes (NOD mice [3]): delays onset of diabetes
- onset of diabetes (NOD mice [3]; listed as humanin): significantly delayed the onset of diabetes

Substance: HNG: humanin analogue, SEQ ID NO:2 MAPRGFSCLLLLTGEIDLPVKRRA (synthetic humanin (HN) analogue S14G-HN (HNG))
- potency on survival (apoptosis) in IGFBP-3 deficient MEFs (IGFBP-3 deficient MEFs): equal potency

Substance: TNF-α [reference compound]
- increase of apoptosis compared to serum-deprived cells (NIT-1 cells; TNF-α 5 ng/mL, 48 hours): approximately 40%

Substance: F6A-HNG: humanin analogue, SEQ ID NO:16 MAPRGASCLLLLTGEIDLPVKRRA (synthetic humanin (HN) analogue F6A-HNG)
- IGFBP-3 binding (IGFBP-3): does not bind IGFBP-3; also recorded: devoid of IGFBP-3 binding activity
- potency on survival (apoptosis) in normal MEFs (normal (wild-type) MEFs): more potent
- glucose levels at 90 and 120 min (NONcNZO10/LtJ mice; IP GTT on D15): significantly lower
- glucose tolerance (NONcNZO10/LtJ mice; IP GTT on D15 after 6 hour fast, 0.5 mg/g glucose): significantly better glucose tolerance
- potency in promoting survival and activating STAT-3 and ERK, compared to humanin (NIT cells): even greater potency
- potency on survival (apoptosis) in IGFBP-3 deficient MEFs (IGFBP-3 deficient MEFs): equal potency
